Results published in US20180298317A1, “DEVICES FOR SIMULATING A FUNCTION OF A TISSUE AND METHODS OF USE AND MANUFACTURING THEREOF” (PRESIDENT AND FELLOWS OF HARVARD COLLEGE, priority 2015, published 2018).

Tests used:
[1] = test system: human brain microvascular endothelial cells with pericytes or astrocytes; assay: Inflammatory stimulation and cytokine release in 3D BBB chip; type: cell-based
Description: Microfluidic chips and Transwell inserts were cultured for about 72 hours, followed by incubation in CSC complete medium with fetal bovine serum reduced from about 10% to about 2% for about 18 hours. Microfluidics chips were stimulated with TNF-α (Sigma-Aldrich) at about 50 ng/ml in CSC complete medium with about 2% serum for about 6 hrs (about 5 min flow at about 120 μl/min corresponding to about 1 dyne/cm^2, followed by static conditions). Transwells were stimulated on the apical and the basal side. Following thorough rinsing of microfluidic chips under continuous flow (about 120 μl/min, about 1 dyne/cm^2) and batch washes of Transwell plates with CSC complete medium with about 2% serum, conditioned medium from the chips was collected continuously for about 1 hour at about 100 μl/hr (about 0.01 dyne/cm^2) using syringe-driven flow; medium from the apical compartment was collected from Transwells after about 1 hour. The cytokine release profile was assayed with the Bio-Plex Pro Human Cytokine 17-plex Assay (Bio-Rad) in a Bioplex 3D system (Bio-Rad), and the resulting cytokine release profiles were normalized to cell culture area in 3D BBB chips versus Transwells.
(§1) To explore whether we can use the synthetic nature of the 3D BBB chip to analyze the contributions of individual brain vasculature-associated cells to neuroinflammation, the engineered microvessels were cultured in the presence or absence of TNF-α (about 50 ng/ml) that was flowed through the lumen for about 6 hours. Cytokine release profiles produced in the 3D BBB chips containing endothelium with or without either pericytes or astrocytes were then analyzed, and the results were compared to those obtained with similar mono-cultures, as well as co-cultures maintained in commercial Transwell culture plates.

[2] = test system: human brain microvascular endothelial cells with pericytes or astrocytes; assay: Inflammatory stimulation and cytokine release in static Transwell cultures; type: cell-based
Description: 24-well Transwell inserts (Corning), about 0.4 μm, polyethylene terephthalate membranes, were coated with rat-tail collagen I (Corning) at about 100 μg/ml in phosphate-buffered saline for about 2 hours. The inserts were inverted and pericytes or astrocytes were seeded at about 6.25×10^3 cells per insert. After about 2 hours of incubation, the inserts were placed in 24-well plates and seeded with hBMVEC at about 2.5×10^4 cells per insert. Transendothelial electrical resistance (TEER) values were measured after about 120 hrs of culture using an EndOhm (WPI) and chopstick electrodes. Paracellular diffusion was assayed about 5 minutes after adding dextran 3 kDa-Alexa488 (about 100 μg/ml) to the apical chamber and using a Synergy Neo platereader (BioTek (Winooski, Vt., USA)).
Microfluidic chips and Transwell inserts were cultured for about 72 hours, followed by incubation in CSC complete medium with fetal bovine serum reduced from about 10% to about 2% for about 18 hours. Microfluidics chips were stimulated with TNF-α (Sigma-Aldrich) at about 50 ng/ml in CSC complete medium with about 2% serum for about 6 hrs (about 5 min flow at about 120 μl/min corresponding to about 1 dyne/cm^2, followed by static conditions). Transwells were stimulated on the apical and the basal side. […]
as §1

With TNF-α the IL-6 induction ([1]; 3D BBB chip co-cultures of astrocytes-endothelial cells and pericytes-endothelial cells, about 50 ng/ml, about 6 hours) was “strong IL-6 induction”, the “IL-8 production in response to stimulation” value ([1]; 3D BBB chip, astrocytes or pericytes in combination with endothelial cells) was “enhanced IL-8 production” and the “induction of G-CSF secretion” value ([1]; 3D BBB chip, pericytes with endothelium, about 50 ng/ml, about 6 hours) was “generally not sensitive to induction”. The “increase in G-CSF secretion in response to TNF-α stimulation” value ([1]; 3D BBB chips containing astrocytes and endothelial cells, about 50 ng/ml, about 6 hours) was no more than 10 fold, the IL-6 induction ([2]; Transwell co-cultures, about 50 ng/ml, about 6 hours) was “barely detectable” and the “IL-8 production in response to stimulation” value ([2]; Transwell cultures, astrocytes or pericytes in combination with endothelial cells) was “enhanced IL-8 production”. The “induction of G-CSF secretion” value ([2]; endothelial cells and astrocytes co-cultured under static conditions in Transwells, about 50 ng/ml, about 6 hours) was “could not be detected”.
